Experimental data published in US11827917B1, “Methods for the conversion of fermentable sugars to ethanol” (Colorado State University Research Foundation, priority 2020, dated 2023).
Entries after “also recorded” stand apart in the source; their conditions may differ. Marks after values point to notes of the source that are not given here.

Assays:
Type in all cases: cell-based, Saccharomyces cerevisiae
S. cerevisiae JAY 270 [1] = assay: Screening of growth in 24-well plates on YPDA; conditions: for Cell growth score (colony size): YPDA, 30° C., 24 h; for Effect on cell growth in the plate assay (words): tested concentrations, 24-well plates
Procedure: Procedure: An inoculum culture of S. cerevisiae JAY 270 was grown in 100 mL of yeast extract-peptone-dextrose (YPD) medium (10 g/L yeast extract, 20 g/L peptone, 20 g/L glucose) in 200-mL serum bottles overnight in a shaker at 30° C. and 200 rpm. The cells were collected by centrifuging 10 min at 4000×g and 4° C. To wash off the medium residue, the cell pellet was resuspended in 30 mL of sterile 0.8% (w/v) NaCl solution and centrifuged at 4000×g for 10 min. The cell pellet was washed twice. Finally, the cell pellet was resuspended and diluted in 0.8% (w/v) NaCl to achieve cell concentrations of OD600=0.02 and 0.2.
The eight compounds were added in YPDA separately at 0.03%, 0.05%, 0.1%, and 0.2% (w/v). The standard control treatment contained only YPDA medium without addition of these compounds. Since the TrpOH and TyrOH stock solutions were dissolved in DMSO, the controls for those tests were YPDA with the same concentration of DMSO. A 3-mL aliquot of YPDA medium with or without the test compounds were loaded in each well of the 24-well plate.
Ten μL of the prepared S. cerevisiae JAY 270 cell suspension at OD600=0.02 or 0.2 was loaded onto the YPDA medium in each well of the 24-well plates. Then the plates were sealed with Parafilm and incubated at 30° C. for 24 h. There were four biological replicates for each treatment.
Yeast cell growth was evaluated by visual observation of the colony size in the well and scored as 0, +, ++, and +++.

S. cerevisiae JAY 270 [2] = assay: Serum-bottle cultivation in YPD: biomass, glycerol, ethanol yields; conditions: YPD, serum bottles
Procedure: Procedure: Cultivations in serum bottles were used to determine the effect of the best-performing screened chemicals on the ethanol yield. S. cerevisiae JAY 270 was pre-cultured in 100 mL of YPD medium in 200-mL serum bottles overnight in a shaker at 30° C. and 200 rpm. The precultured yeast cells were collected and washed twice as described above. The cell pellet was resuspended in about 10 mL of 0.8% (w/v) NaCl and the cell concentration was estimated as OD600. TyrOH, PheOH, and TrpOH were added to 30 mL of YPD medium in 100-mL serum bottles at 0.05% and 0.2% respectively. The same amount of DMSO was added to YPD medium to serve as the control for TrpOH and TyrOH treatments. The bottles were inoculated with the prepared yeast cells to obtain an initial cell concentration of OD600=0.2. The serum bottles were sealed and cultured in a shaker at 30° C. and 200 rpm for 24 h. Each condition had three biological replicates.
Analytical methods: Cell growth was evaluated by monitoring OD600 and cell dry mass concentration. For dry mass measurements, 1.0 mL of culture was transferred to a pre-dried and pre-weighed 2-mL centrifuge tube. The tubes were centrifuged for 10 min at 14000 rpm using a microcentrifuge, and then the cell pellets were dried in an oven for 3 days at 65° C. The cell dry mass was determined by subtracting the initial tube mass from the dried mass of tube with cells. The concentrations of glucose, ethanol, and glycerol were measured via HPLC (Shimadzu LC20A series) outfitted with a refractive index detector and using an Aminex HPX-87H (300×7.8 mm) organic acid column and Cation H+ guard cartridge (Bio Rad Laboratories, Hercules, CA). The column was maintained at 65° C. and the mobile phase was 5 mM sulfuric acid with a flow rate of 0.6 mL/min. Standard compound solutions were used to calibrate the HPLC. Each sample was analyzed three times by HPLC.

S. cerevisiae JAY 270 [3] = assay: Growth test in liquid YNB medium, low/high nitrogen, serum bottles; conditions: 40, 200, 1000 mg/L; low and high nitrogen media
Procedure: A second set of tests was performed in a defined liquid medium, Yeast Nitrogen Base with Glucose (YNB), containing (NH4)2SO4 at either low (1 mM) or high (10 mM) nitrogen content. […] All serum bottles were incubated in a shaker at 30° C. and 150 RPM. Each treatment was performed in biological duplicate. Samples were collected at 0, 5, and 10 hours.

Structure (SMILES): C[C@@H]1C[C@@H]([C@H](O)CC2CC(=O)NC(=O)C2)C(=O)[C@@H](C)C1 [Cycloheximide, cycloheximide, reference compound]
- Cell growth score (colony size) (S. cerevisiae JAY 270 [1]; 0.03% (w/v)): 0
- Cell growth score (colony size) (S. cerevisiae JAY 270 [1]; 0.05% (w/v)): 0
- Cell growth score (colony size) (S. cerevisiae JAY 270 [1]; 0.10% (w/v)): 0
- Cell growth score (colony size) (S. cerevisiae JAY 270 [1]; 0.20% (w/v)): 0
- Effect on cell growth in the plate assay (words) (S. cerevisiae JAY 270 [1]): inhibited all cell growth at all tested concentrations
- Effect on cell growth in the plate assay (words) (S. cerevisiae JAY 270 [1]; listed as cycloheximide): inhibited growth; also recorded: reduced the growth
- Biomass yield % change vs. control (S. cerevisiae JAY 270 [2]; 0.1 mg/L): −12* %
- Biomass yield vs. reference (S. cerevisiae JAY 270 [2]; 0.1 mg/L): −36.1%
- Effect on ethanol yield (S. cerevisiae JAY 270 [2]; 0.1 mg/L): slight decrease of ethanol yield
- EtOH yield (S. cerevisiae JAY 270 [2]; 0.1 mg/L): 0.42 ± 0.01 g/g
- EtOH yield % change vs. control (S. cerevisiae JAY 270 [2]; 0.1 mg/L): −3.5%
- Ethanol yield (S. cerevisiae JAY 270 [2]; 0.1 mg/L): 0.42 ± 0.01 g/g
- Ethanol yield vs. reference (S. cerevisiae JAY 270 [2]; 0.1 mg/L): 0%
- Glycerol yield % change vs. control (S. cerevisiae JAY 270 [2]; 0.1 mg/L): −48* %
- Glycerol yield vs. reference (S. cerevisiae JAY 270 [2]; 0.1 mg/L): 0.4%
- OD600 (S. cerevisiae JAY 270 [2]; 0.1 mg/L): 2.82
- OD600 (S. cerevisiae JAY 270 [2]; 0.4 mg/L): 0.22

Structure (SMILES): Nc1nc[nH]n1 [3-amino-1,2,4-triazole]
- Cell growth score (colony size) (S. cerevisiae JAY 270 [1]; 0.03% (w/v)): +++
- Cell growth score (colony size) (S. cerevisiae JAY 270 [1]; 0.05% (w/v)): +++
- Cell growth score (colony size) (S. cerevisiae JAY 270 [1]; 0.10% (w/v)): +++
- Cell growth score (colony size) (S. cerevisiae JAY 270 [1]; 0.20% (w/v)): +++
- Effect on cell growth in the plate assay (words) (S. cerevisiae JAY 270 [1]): did not inhibit cell growth

Structure (SMILES): CC(C)=CCCC(C)=CCCC(C)=CCO [Farnesol, farnesol]
- Cell growth score (colony size) (S. cerevisiae JAY 270 [1]; 0.03% (w/v)): +++
- Cell growth score (colony size) (S. cerevisiae JAY 270 [1]; 0.05% (w/v)): +++
- Cell growth score (colony size) (S. cerevisiae JAY 270 [1]; 0.10% (w/v)): +++
- Cell growth score (colony size) (S. cerevisiae JAY 270 [1]; 0.20% (w/v)): +++
- Effect on cell growth in the plate assay (words) (S. cerevisiae JAY 270 [1]): did not inhibit cell growth

Structure (SMILES): OB(O)O [Boric acid, reference compound]
- Cell growth score (colony size) (S. cerevisiae JAY 270 [1]; 0.03% (w/v)): +++
- Cell growth score (colony size) (S. cerevisiae JAY 270 [1]; 0.05% (w/v)): +++
- Cell growth score (colony size) (S. cerevisiae JAY 270 [1]; 0.10% (w/v)): ++
- Cell growth score (colony size) (S. cerevisiae JAY 270 [1]; 0.20% (w/v)): +
- Effect on cell growth in the plate assay (words) (S. cerevisiae JAY 270 [1]): inhibited growth; also recorded: reduced the growth
- Biomass Yield (S. cerevisiae JAY 270 [2]; 0.05% (w/v)): 0.137 + 0.001 g/g
- Biomass yield % change vs. control (S. cerevisiae JAY 270 [2]; 0.05% (w/v)): 0%
- EtOH yield (S. cerevisiae JAY 270 [2]; 0.05% (w/v)): 0.41 ± 0.00 g/g
- EtOH yield % change vs. control (S. cerevisiae JAY 270 [2]; 0.05% (w/v)): 0%
- Glycerol yield (S. cerevisiae JAY 270 [2]; 0.05% (w/v)): 0.024 ± 0.001 g/g
- Glycerol yield % change vs. control (S. cerevisiae JAY 270 [2]; 0.05% (w/v)): 0%
- Biomass yield vs. reference (S. cerevisiae JAY 270 [2]; 0.05%): 0%
- Ethanol yield (S. cerevisiae JAY 270 [2]; 0.05%): 0.41 ± 0.00 g/g
- Ethanol yield vs. reference (S. cerevisiae JAY 270 [2]; 0.05%): 0%
- Glycerol yield (S. cerevisiae JAY 270 [2]; 0.05%): 0.024 ± 0.001 g/g
- Glycerol yield vs. reference (S. cerevisiae JAY 270 [2]; 0.05%): −6.3%
- OD600 (S. cerevisiae JAY 270 [2]; 0.05%): 4.78
- Effect on ethanol yield (S. cerevisiae JAY 270 [2]; 0.05 and 0.2%): did not affect ethanol yield
- Biomass Yield (S. cerevisiae JAY 270 [2]; 0.2% (w/v)): 0.116 + 0.001 g/g
- Biomass yield % change vs. control (S. cerevisiae JAY 270 [2]; 0.2% (w/v)): −15* %
- EtOH yield (S. cerevisiae JAY 270 [2]; 0.2% (w/v)): 0.41 ± 0.00 g/g
- EtOH yield % change vs. control (S. cerevisiae JAY 270 [2]; 0.2% (w/v)): 0%
- Glycerol yield (S. cerevisiae JAY 270 [2]; 0.2% (w/v)): 0.027 ± 0.001 g/g
- Glycerol yield % change vs. control (S. cerevisiae JAY 270 [2]; 0.2% (w/v)): 6.9%
- Biomass yield vs. reference (S. cerevisiae JAY 270 [2]; 0.2%): −15.3%
- Ethanol yield (S. cerevisiae JAY 270 [2]; 0.2%): 0.41 ± 0.00 g/g
- Ethanol yield vs. reference (S. cerevisiae JAY 270 [2]; 0.2%): 0%
- Glycerol yield (S. cerevisiae JAY 270 [2]; 0.2%): 0.027 ± 0.000 g/g
- Glycerol yield vs. reference (S. cerevisiae JAY 270 [2]; 0.2%): 6.9%
- OD600 (S. cerevisiae JAY 270 [2]; 0.2%): 3.96
- Inhibitory effect on yeast cell growth in liquid YNB medium (S. cerevisiae JAY 270 [3]): little or no growth inhibition effects

Structure (SMILES): CP(=O)(O)CCC(N)C(=O)O (stereo not drawn) [Glufosinate ammonium, glufosinate ammonium]
- Cell growth score (colony size) (S. cerevisiae JAY 270 [1]; 0.03% (w/v)): +++
- Cell growth score (colony size) (S. cerevisiae JAY 270 [1]; 0.05% (w/v)): +++
- Cell growth score (colony size) (S. cerevisiae JAY 270 [1]; 0.10% (w/v)): +++
- Cell growth score (colony size) (S. cerevisiae JAY 270 [1]; 0.20% (w/v)): +++
- Effect on cell growth in the plate assay (words) (S. cerevisiae JAY 270 [1]): did not inhibit cell growth
